As usually defined, the inhibition is the relative decrease from the control value, in per cent. Usually IC50 stands for the point on the concentration scale where inhibition reaches its midpoint. As a reminder, the pIC50 is the negative decadic logarithm of the IC50, by convention in mol/L.

This is an account of results in ChEMBL document CHEMBL2321784, “Discovery of 5-benzyl-3-phenyl-4,5-dihydroisoxazoles and 5-benzyl-3-phenyl-1,4,2-dioxazoles as potent firefly luciferase inhibitors” (J Med Chem, 2013).

The structures appear in SMILES notation.

In test [1] the target is Luciferin 4-monooxygenase (Photinus pyralis) (UniProt P08659). Kind of test: Inhibition of recombinant firefly luciferase at 10 uM after 20 mins by luminescence assay.
Chain of Luciferin 4-monooxygenase (Photinus pyralis) (P08659 whole entry): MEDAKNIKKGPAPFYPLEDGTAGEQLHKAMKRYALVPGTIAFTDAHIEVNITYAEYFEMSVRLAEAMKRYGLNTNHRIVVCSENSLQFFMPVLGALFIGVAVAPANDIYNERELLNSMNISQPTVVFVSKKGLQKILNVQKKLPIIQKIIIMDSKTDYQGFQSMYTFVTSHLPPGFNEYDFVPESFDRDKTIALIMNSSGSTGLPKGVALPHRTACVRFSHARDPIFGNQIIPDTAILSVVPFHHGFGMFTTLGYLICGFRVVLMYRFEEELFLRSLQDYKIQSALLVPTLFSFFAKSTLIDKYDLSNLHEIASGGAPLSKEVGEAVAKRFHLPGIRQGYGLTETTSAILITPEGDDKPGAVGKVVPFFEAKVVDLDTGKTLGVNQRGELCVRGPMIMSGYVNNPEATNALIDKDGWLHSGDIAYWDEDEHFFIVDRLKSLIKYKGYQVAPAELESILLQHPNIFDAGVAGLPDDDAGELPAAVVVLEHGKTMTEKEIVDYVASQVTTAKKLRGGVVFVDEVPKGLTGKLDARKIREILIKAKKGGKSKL
The target is the same in test [2]. Kind of test: Inhibition of recombinant firefly luciferase at 1 nM after 20 mins by luminescence assay.
In test [3] the target is Luciferin 4-monooxygenase (Photinus pyralis, UniProt P08659). In words: Inhibition of recombinant firefly luciferase after 20 mins by luminescence assay.
Chain of Luciferin 4-monooxygenase (P08659 whole entry): as above

With `Oc1ccc(/C=C/c2cc(O)cc(O)c2)cc1`, the inhibition is 99.6% in test [1] and 6.8% in test [2].
For the molecule `COc1ccccc1CC1CC(c2ccc(Cl)cc2)=NO1` (racemic), the inhibition in test [1] stood at 91.8%; in test [2], 29.8%. Besides, the IC50 in test [3] was 16.2 nM.
The like results for `Oc1cccc(C2=NO[C@@H](Cc3ccccc3)C2)c1` were, in that order, 71.5%, 6.7% and 2190 nM.
The like results for `Fc1cccc(C2=NO[C@@H](Cc3ccccc3)C2)c1` were, in that order, 84.1%, -3.7% and 1000 nM.
The like results for `Fc1ccc(C[C@H]2CC(c3ccc(Cl)cc3)=NO2)cc1` were, in that order, 86.8%, 1.4% and 603 nM.
As to `COc1ccc(C2=NO[C@@H](Cc3cccc(OC)c3)C2)cc1`, the inhibition in test [1] worked out at 25.5%; in test [2], 4%. In addition, in test [3], the pIC50 is reported as over 5.
On to `COc1ccccc1C1=NO[C@H](Cc2ccccc2)O1`, for which the inhibition amounted to 98.2% in test [1] and 48.3% in test [2]. The IC50 in test [3] was 2.14 nM.
As to `CC(C)c1ccc(C[C@H]2CC(c3ccc(Cl)cc3)=NO2)cc1`, the inhibition was 31.9% in test [1] and 1.7% in test [2]. For the same molecule, the pIC50 in test [3] is over 5.
As for `N#Cc1ccc(C2=NO[C@@H](Cc3ccccc3)C2)cc1`, the inhibition amounted to 88.3% in test [1] and 14.7% in test [2]. For the same molecule, the IC50 in test [3] is 331 nM.
The like results for `Oc1ccc(C2=NO[C@H](Cc3ccccc3)C2)cc1` were, in that order, 93.3%, 13.1% and 316 nM.
In the case of `Clc1ccc(C2=NO[C@H](Cc3cccc4ccccc34)C2)cc1`, the inhibition in test [1] turned out to be 40.9%; in test [2], 2%. For the same molecule, the pIC50 in test [3] is given as over 5.
The like results for `COc1cccc(C[C@H]2CC(c3ccc(Cl)cc3)=NO2)c1` were, in that order, 33.6%, 1.1% and over 5.
`Fc1cccc(C2=NO[C@H](Cc3ccccc3)C2)c1`: the inhibition in test [1] turned out to be 98.2%; in test [2], 61.6%. Also, the IC50 in test [3] was 0.955 nM.
Turning to `Clc1ccc(C2=NO[C@@H](Cc3ccccc3)C2)cc1`, the inhibition in test [1] came out at 88.3%; in test [2], 17.7%. The IC50 in test [3] is 417 nM.
The like results for `COc1ccc(C2=NO[C@H](Cc3ccccc3)O2)cc1` were, in that order, 99.5%, 56.1% and 0.955 nM.
Turning to `Oc1ccc(C2=NO[C@@H](Cc3ccccc3)C2)cc1`, the figures for the inhibition in test [1] and in test [2] were 42.8% and 5.3%, respectively. Moreover, the pIC50 in test [3] is on record as over 5.
Regarding `COc1ccc(C2=NO[C@H](CCc3ccccc3)C2)cc1`, the inhibition in test [1] was 96%; in test [2] it was 30.5%. Also, the IC50 in test [3] is 13.8 nM.
Turning to `CC(C)c1ccc(C[C@@H]2CC(c3ccc(Cl)cc3)=NO2)cc1`, the inhibition in test [1] is 0.7%; in test [2], 0.4%.
Regarding `COc1ccc(C2=NO[C@H](Cc3ccc(F)cc3)C2)cc1`, the inhibition in test [1] worked out at 100%; in test [2], 26.7%. Besides, the IC50 in test [3] is 10.5 nM.
Regarding `Fc1ccccc1C1=NO[C@H](Cc2ccccc2)C1`, the inhibition in test [1] turned out to be 99.3%; in test [2], 57.9%. Further, in test [3], the IC50 is 0.955 nM.
In the case of `COc1ccc(C[C@H]2CC(c3ccc(OC)cc3)=NO2)cc1`, the inhibition in test [1] stood at 3.1%; in test [2], 3.3%.
The like results for `COc1ccc(C[C@H]2CC(c3ccc(Cl)cc3)=NO2)cc1` were, in that order, 1.7% and 1%.
Take `CCc1ccc(C[C@@H]2CC(c3ccc(Cl)cc3)=NO2)cc1`: the inhibition in test [1] was 29.4%; in test [2] it was 6.3%. In test [3], the pIC50 was over 5.
In the case of `COc1ccc(CC2CC(c3ccc(Cl)cc3)=NO2)cc1OC` (racemic), the values for the inhibition in test [1] and in test [2] were 2.2% and 0.9%, respectively.
On to `N#Cc1ccc(C2=NO[C@H](Cc3ccccc3)C2)cc1`, for which the inhibition in test [1] came to 99.2%; in test [2] it was 53.6%. Besides, the IC50 in test [3] is 0.891 nM.
The like results for `COc1ccccc1C1=NO[C@@H](Cc2ccccc2)O1` were, in that order, 63.3%, 5% and 4270 nM.
The like results for `Fc1ccccc1C1=NOC(Cc2ccccc2)O1` (racemic) were, in that order, 98%, 38.8% and 2.82 nM.
Regarding `CC1(Cc2ccccc2)CC(c2ccc(Cl)cc2)=NO1` (racemic), the results for the inhibition in test [1] and in test [2] were 95.8% and 28.7%, respectively. Further, the IC50 in test [3] is 32.4 nM.
As for `Fc1ccc(C[C@@H]2CC(c3ccc(Cl)cc3)=NO2)cc1`, the figures for the inhibition in test [1] and in test [2] were 99.2% and 53%, respectively. Also, in test [3], the IC50 was 0.871 nM.
The like results for `Oc1cccc(C2=NO[C@H](Cc3ccccc3)C2)c1` were, in that order, 99.7%, 47% and 0.832 nM.
With `Fc1ccc(C2=NO[C@H](Cc3ccccc3)C2)cc1`, the inhibition was determined as 99.5% in test [1] and 76.8% in test [2]. The IC50 in test [3] was 0.309 nM.
As to `Fc1ccccc1C1=NO[C@@H](Cc2ccccc2)C1`, the values for the inhibition in test [1] and in test [2] were 83% and 11.3%, respectively. The IC50 in test [3] was 1020 nM.
With `c1ccc(C[C@@H]2CC(c3cccc4ccccc34)=NO2)cc1`, the values for the inhibition in test [1] and in test [2] were 62.2% and 3%, respectively. In addition, the IC50 in test [3] is 2510 nM.
For the molecule `CCc1ccc(C[C@H]2CC(c3ccc(Cl)cc3)=NO2)cc1`, the inhibition in test [1] was 50.2%; in test [2], 2.5%. Besides, in test [3], the IC50 was 8710 nM.
`COc1cccc(C2=NO[C@@H](Cc3ccccc3)C2)c1`: the inhibition in test [1] was 75.3%; in test [2] it was 9.6%. Also, the IC50 in test [3] is 1950 nM.
As to `COc1ccc(C[C@@H]2CC(c3ccc(Cl)cc3)=NO2)cc1`, the inhibition in test [1] stood at 30.4%; in test [2], 3.8%. Further, in test [3], the pIC50 is over 5.
As to `Clc1ccccc1C1=NOC(Cc2ccccc2)O1` (racemic), the inhibition in test [1] came out at 99.6%; in test [2] it was 68.5%. Further, the IC50 in test [3] is 0.525 nM.
The like results for `c1ccc(C[C@H]2CC(c3ccccc3)=NO2)cc1` were, in that order, 94.9%, 6.5% and 174 nM.
The like results for `c1ccc(C[C@@H]2CC(c3ccc4ccccc4c3)=NO2)cc1` were, in that order, 97%, 13.4% and 87.1 nM.
The like results for `Oc1ccccc1C1=NO[C@@H](Cc2ccccc2)C1` were, in that order, 79.7%, 8.9% and 1120 nM.
Take `COc1cccc(C2=NO[C@H](Cc3ccccc3)C2)c1`: the inhibition worked out at 99.4% in test [1] and 65.9% in test [2]. Moreover, in test [3], the IC50 is 0.398 nM.
The like results for `c1ccc(C[C@@H]2CC(c3ccccc3)=NO2)cc1` were, in that order, 99.5%, 47.1% and 1.58 nM.
For the molecule `COc1cccc(C[C@@H]2CC(c3ccc(Cl)cc3)=NO2)c1`, the inhibition turned out to be 96.7% in test [1] and 20.6% in test [2]. For the same molecule, the IC50 in test [3] is 17 nM.
The like results for `Clc1ccccc1C1=NOC(Cc2ccccc2)C1` (racemic) were, in that order, 99.8%, 50.7% and 0.933 nM.
`c1ccc(C[C@H]2CC(c3ccc4ccccc4c3)=NO2)cc1`: the inhibition in test [1] worked out at 31.5%; in test [2], 4.9%. For the same molecule, the pIC50 in test [3] is recorded as over 5.
Regarding `COc1ccc(C2=NOC(C)(Cc3ccccc3)C2)cc1` (racemic), the inhibition in test [1] amounted to 97.6%; in test [2], 20.3%. The IC50 in test [3] was 21.9 nM.
On to `Clc1ccc(C2=NO[C@@H](Cc3cccc4ccccc34)C2)cc1`, for which the figures for the inhibition in test [1] and in test [2] were 36.6% and 1.9%, respectively. In test [3], the pIC50 was over 5.
As for `COc1ccc(C2=NO[C@@H](CCc3ccccc3)C2)cc1`, the results for the inhibition in test [1] and in test [2] were 6.8% and 2.5%, respectively.
`COc1ccccc1C1=NO[C@H](Cc2ccccc2)C1`: the inhibition came to 99.4% in test [1] and 51.7% in test [2]. In addition, the IC50 in test [3] is 0.912 nM.
With `COc1ccc(C2=NO[C@@H](Cc3ccc(F)cc3)C2)cc1`, the results for the inhibition in test [1] and in test [2] were 41.3% and -1.9%, respectively. Besides, the pIC50 in test [3] is over 5.
For `COc1ccccc1C1=NO[C@@H](Cc2ccccc2)C1`, the inhibition in test [1] worked out at 57.5%; in test [2], 5.2%. Further, in test [3], the IC50 was 6920 nM.
The like results for `COc1ccc(C2=NO[C@@H](Cc3ccccc3)O2)cc1` were, in that order, 98.6%, 42% and 5.25 nM.
The like results for `Clc1cccc(C2=NOC(Cc3ccccc3)C2)c1` (racemic) were, in that order, 94.8%, 26.1% and 15.1 nM.
For `O=[N+]([O-])c1ccc(C2=NOC(Cc3ccccc3)C2)cc1` (racemic), the inhibition in test [1] turned out to be 96.4%; in test [2], 63.9%. In addition, the concentration for half-maximal inhibition (IC50) in test [3] was 0.741 nM.
Consider `Fc1ccc(C2=NO[C@@H](Cc3ccccc3)C2)cc1`, for which the inhibition in test [1] worked out at 85.6%; in test [2], 7.7%. For the same molecule, the IC50 in test [3] was 741 nM.
The like results for `COc1ccc(C2=NO[C@H](Cc3cccc(OC)c3)C2)cc1` were, in that order, 98.7%, 43.8% and 1.17 nM.
The like results for `COc1ccc(C2=NO[C@H](Cc3ccccc3OC)C2)cc1` were, in that order, 98.8%, 46.5% and 1.82 nM.
For `COc1ccc(C[C@@H]2CC(c3ccc(OC)cc3)=NO2)cc1`, the inhibition in test [1] worked out at 37.4%; in test [2], 3.1%. In test [3], the pIC50 is reported as over 5.
Consider `Oc1ccccc1C1=NO[C@H](Cc2ccccc2)C1`, for which the values for the inhibition in test [1] and in test [2] were 98.4% and 48.1%, respectively. Moreover, the IC50 in test [3] is 1.95 nM.
